Source: article PMC12056667 (Chemical Science, 2025)

Columns and labels:
Tet(X4) = Tet(X4) (Escherichia coli, UniProt A0A3T0V9Y5); assay: Absorbance activity assay (tigecycline turnover, A400); type: biochemical
Description: We then tested the binding of reported type 1 TDase inhibitors to Tet(X4) (Fig. 3f, ESI Fig. S17 ^†).[33,38,39] […] These compounds gave similar apparent IC50^app values, in accord with trends in IC50 measurements performed by Markley et al.[33] […] We also developed a complementary endpoint activity assay where the turnover of tigecycline by Tet(X4) in a 96-well plate was quenched by addition of 1%v/v formic acid and analysed chromatographically. The peak integrals of tigecycline and its hydroxylated degradation product at 254 nm following UPLC analysis were measured to determine turnover (Fig. 5a). As this method separates components by chromatography, it enables IC50 measurements independent of potential interference from UV-active inhibitors (Fig. 5b). […] The apparent synergy of AZT with tetracyclines against whole cells expressing Tet(X4)[40] is therefore interesting and may derive from the proposed ability of AZT to interfere with DNA synthesis in bacteria,[40,53] or other unidentified mechanisms. […] Note, however, that plumbagin and 2-MNQ are naphthoquinones, which are well-characterised redox-active pan-assay interference (PAINS) moieties.[54]
233 Absorbance Activity Assays
234 A solution containing 100 mM TAPS (pH 8.5), 2 µM FAD, 10 mM MgCl2 and 100 nM Tet(X4) was
235 dispensed into a 384 well µClear plate (Greiner Bio-One), 25 µL per well, using a microplate reagent
236 dispenser. A 3-fold, 10-point dilution series of the substrates and inhibitors was made in DMSO with
237 the highest concentration of 50 mM, unless otherwise stated, and transferred to the enzyme solution in
238 technical quadruplicate using a CyBi-Well (CyBio) liquid-handling robot (1 µL per well). On each plate,
239 a column of no enzyme negative controls and no inhibitor (DMSO only) positive controls were
240 included. The plate was briefly centrifuged (1000 rpm), then incubated (ambient temperature,15 min).
241 A solution containing 100 mM TAPS (pH 8.5), 50 µM tigecycline and 500 µM NADPH was then
242 dispensed, with 25 µL per well. The plate was briefly centrifuged (1000 rpm), then transferred to a
243 CLARIOstar Plus Microplate reader. The absorbance was monitored at wavelength […] over the
244 course of 2 hours (23 flashes / cycle, 180 s cycle time, 41 data points, 25 ° C). The initial rate was
245 calculated by measuring the rate of change of A400 during the initial linear regime. Initial rates were
246 normalised between positive and negative controls. The normalised % response was plotted as a
247 function of log10([Inhibitor]) in molar units, and the IC50 was determined as above. […]

[1] = system: tigecycline resistant Salmonella, E. coli, Acinetobacter and Proteus isolates containing tet(X) genes; assay: Checkerboard assays across the panel of isolates; type: cell-based; details: against all of the strains tested
Experimental: MIC tests and checkerboard assays were performed in U-bottom, 96-well microtiter plates using a modified broth microdilution protocol following CLSI guidelines. Cation-adjusted Mueller-Hinton Broth (CAMHB) was prepared fresh on the day of testing.[74] In brief, assays were set up in a total volume of 100 μL per well and titrations comprised seven 2-fold dilutions of inhibitors and ten 2-fold dilutions of tigecycline in CAMHB. Bacterial colonies were selected from an overnight culture on MHA plates (supplemented with 0.2%w/vL-arabinose for E. coli TOP10 containing pBAD-TOPO-Tet(X4)) and were suspended in 0.9% saline solution to achieve a 0.5 McFarland standard. A 100 μL aliquot of this suspension was then diluted into 9.9 mL of CAMHB to yield approximately 1.5 × 10^6 cfu mL^−1. 50 μL of the suspension was then added to each well of a microtiter plates. Plates were incubated at 37 °C for 18 h. At least 2 replicates were conducted for each combination. E. coli TOP10 + pBAD-TOPO-Tet(X4) cells were grown in the absence and presence of 0.2%w/vL-arabinose. […] As a measure of synergy, fractional inhibitory concentration index (FICI) was calculated as FICA + FICB, where FICA and FICB are the MICcombination/MICalone for each agent, respectively.[76] […] In cases where the MIC exceeded or was below the measured range, the borderline value was taken to calculate the FIC index.

Compound	IC50 (Tet(X4))	reduction of the tigecycline MIC in combination [1]
Cc1c2c(c(O)c3c(O)cccc13)C(=O)[C@]1(O)C(=O)C(C(N)=O)=C(O)[C@@H](N(C)C)[C@@H]1C2 [Anhydrotetracycline]	7.6 ± 2 µM	
[H]/N=C(/NCCCCC)N/N=C/c1c[nH]c2ccc(OC)cc12 [Tegaserod]		2–8 fold
